Laboratory results taken from paper PMC8216281, “RNA pull-down confocal nanoscanning (RP-CONA) detects quercetin as pri-miR-7/HuR interaction inhibitor that decreases α-synuclein levels” (Nucleic Acids Research, 2021).

Columns and labels:
HuR [1] = target: T1, HuR (Homo sapiens, UniProt Q15717); experiment: RP-CONA on-bead confocal assay: inhibition of mCherry-HuR binding to pri-miR-7-1-CTL RNA in cell lysate; confirmed by RNA pull-down/western blot and RIP in cells; assay type: biochemical
T1 construct: gene ELAVL1; mCherry-HuR (HuR open reading frame), overexpressed in HuR KO HEK293T lysate

HuR [2] = target: T1, HuR; experiment: RP-CONA on-bead confocal assay: inhibition of mCherry-HuR binding to pri-miR-7-1-CTL RNA in cell lysate; confirmed by RNA pull-down/western blot; assay type: biochemical

T1 sequence (Q15717 2-326): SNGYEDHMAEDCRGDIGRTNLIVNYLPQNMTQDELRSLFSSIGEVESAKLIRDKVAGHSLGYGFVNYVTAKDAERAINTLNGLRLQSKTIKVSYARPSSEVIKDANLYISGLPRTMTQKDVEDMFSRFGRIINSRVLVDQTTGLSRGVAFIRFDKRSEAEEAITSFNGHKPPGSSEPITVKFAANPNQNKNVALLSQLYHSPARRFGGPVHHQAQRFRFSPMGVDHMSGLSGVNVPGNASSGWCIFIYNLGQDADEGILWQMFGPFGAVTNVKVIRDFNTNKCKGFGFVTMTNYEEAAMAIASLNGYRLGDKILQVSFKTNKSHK

IC50 (HuR [2]) [nM]	SMILES	IC50 (HuR [1]) [nM]
–	O=c1c(O)c(-c2ccc(O)c(O)c2)oc2cc(O)cc(O)c12 [quercetin]	2150 ± 160
2030 ± 250	O=c1cc(-c2ccc(O)c(O)c2)oc2cc(O)cc(O)c12 [luteolin]	–
